≈ marks a conversion by molar mass, not a printed value.
What was measured:
in vivo = conditions: callithrix, serum, iv
Description: Serum T1/2 in marmosets (IV dose)

Canis familiaris = organism: Canis familiaris; conditions: dog, in vivo, iv
Homo sapiens = organism: Homo sapiens; assay: Compound was tested for serum protein binding in human blood; type: functional
[1] = Urinary recovery in marmosets (IV dose); type: ADME, organism-based; conditions: callithrix, urine, read-out: Recovery
Pseudomonas aeruginosa [2] = assay: microbe, parasite or virus in culture
Description: Compound was tested for antimicrobial activity against Pseudomonas aeruginosa PU21 strain

Pseudomonas aeruginosa [3] = assay: microbe, parasite or virus in culture; remark: listed apart in the source
Description: Compound was tested for antimicrobial activity against Pseudomonas aeruginosa constitutive derepressed type I beta-lactamase producer (18SH) strain

Enterobacter cloacae [4] = assay: microbe, parasite or virus in culture
Description: Compound was tested for antimicrobial activity against Enterobacter cloacae constitutive derepressed type I beta-lactamase producer (P99+) strain

Staphylococcus aureus [5] = assay: microbe, parasite or virus in culture
Description: Compound was tested for antimicrobial activity against Staphylococcus aureus penicillin sensitive Staphylococcus aureus (147N) strain

Enterobacter cloacae [6] = assay: microbe, parasite or virus in culture; remark: listed apart in the source
Description: Compound was tested for antimicrobial activity against Enterobacter cloacae inducible type I beta-lactamase producer (P99-) strain

Staphylococcus aureus [7] = assay: microbe, parasite or virus in culture; remark: listed apart in the source
Description: Compound was tested for antimicrobial activity against Staphylococcus aureus Oxford strain

Escherichia coli [8] = assay: microbe, parasite or virus in culture
Description: Compound was tested for antimicrobial activity against Escherichia coli DC0 strain (parent organism)

Escherichia coli [9] = assay: microbe, parasite or virus in culture; remark: listed apart in the source
Description: Compound was tested for antimicrobial activity against Escherichia coli DC2 strain (permeability mutant)

Description for physchem: Dissociation constant (pKa)

Row | Structure (SMILES) | half-life (in vivo) | AUC (Canis familiaris) | pKa (physchem) | other results
1 | CCn1cc(C(=O)NCC2=C(C(=O)O)N3C(=O)[C@@H](NC(=O)/C(=N\OC(C)(C)C(=O)O)c4csc(N)n4)[C@H]3SC2)c(=O)c2cc(O)c(O)nc21 | 2.8 h | 137.3 mg/h/L | 5.6 | 
2 | CC(C)(O/N=C(\C(=O)N[C@@H]1C(=O)N2C(C(=O)O)=C(CNC(=O)c3cc(O)c(O)c([N+](=O)[O-])c3)CS[C@H]12)c1csc(N)n1)C(=O)O | 2.9 h | 181.7 mg/h/L | 5.5 | Activity (Homo sapiens): 97.5%; dose excreted [1]: 47.3%
3 | CCN(CC1=C(C(=O)O)N2C(=O)[C@@H](NC(=O)/C(=N\OC(C)(C)C(=O)O)c3csc(N)n3)[C@H]2SC1)C(=O)c1cc(O)c(O)c(F)c1 | 0.5 h | 10.9 mg/h/L | 7.85 | 
4 | CCN(CC1=C(C(=O)O)N2C(=O)[C@@H](NC(=O)/C(=N\OC(C)(C)C(=O)O)c3csc(N)n3)[C@H]2SC1)C(=O)c1cc(O)c(O)c(Cl)c1 | 0.9 h | 16.4 mg/h/L | 7.4 | 
5 | CC(C)(O/N=C(\C(=O)N[C@@H]1C(=O)N2C(C(=O)O)=C(CNC(=O)c3cc4ccc(O)c(O)c4oc3=O)CS[C@H]12)c1csc(N)n1)C(=O)O | 3.95 h | 243.9 mg/h/L |  | Activity (Homo sapiens): 99.6%; dose excreted [1]: 6.9%
6 | CCN(CC1=C(C(=O)O)N2C(=O)[C@@H](NC(=O)/C(=N\OC(C)(C)C(=O)O)c3csc(N)n3)[C@H]2SC1)C(=O)c1cc(O)c(O)cc1F | 0.6 h | 7.6 mg/h/L | 8.25 | 
7 | CCn1nc(C(=O)NCC2=C(C(=O)O)N3C(=O)[C@@H](NC(=O)/C(=N\OC(C)(C)C(=O)O)c4csc(N)n4)[C@H]3SC2)c(=O)c2cc(O)c(O)cc21 | 2.2 h | 129.8 mg/h/L | 6.5 | Activity (Homo sapiens): 97.8%; dose excreted [1]: 26.9%
8 | CC(C)(O/N=C(\C(=O)N[C@@H]1C(=O)N2C(C(=O)O)=C(CNC(=O)c3cc(O)c(O)cc3F)CS[C@H]12)c1csc(N)n1)C(=O)O | 1.6 h | 78 mg/h/L | 7.8 | 
9 | CCn1cc(C(=O)NCC2=C(C(=O)O)N3C(=O)[C@@H](NC(=O)/C(=N\OC(C)(C)C(=O)O)c4csc(N)n4)[C@H]3SC2)c(=O)c2c(Cl)c(O)c(O)cc21 | 5.7 h | 645.7 mg/h/L | 7 | 
10 | CC(C)(O/N=C(\C(=O)N[C@@H]1C(=O)N2C(C(=O)O)=C(CNC(=O)Cc3cc(O)c(O)cc3Br)CS[C@H]12)c1csc(N)n1)C(=O)O |  | 1.6 mg/h/L |  | 
11 | CCO/N=C(\C(=O)N[C@@H]1C(=O)N2C(C(=O)O)=C(CNC(=O)c3cc(O)c(O)c(Cl)c3)CS[C@H]12)c1csc(N)n1 | 1.3 h | 57.6 mg/h/L | 6.9 | 
12 | CCN(CC1=C(C(=O)O)N2C(=O)[C@@H](NC(=O)/C(=N\OC(C)(C)C(=O)O)c3csc(N)n3)[C@H]2SC1)C(=O)c1cc(O)c(O)c(C#N)c1 | 1 h | 41 mg/h/L | 5.8 | 
13 | CCN(CC1=C(C(=O)O)N2C(=O)[C@@H](NC(=O)/C(=N\OC(C)(C)C(=O)O)c3csc(N)n3)[C@H]2SC1)C(=O)c1cc(O)c(O)c([N+](=O)[O-])c1 | 1.6 h | 49.2 mg/h/L | 5.8 | 
14 | CCO/N=C(\C(=O)N[C@@H]1C(=O)N2C(C(=O)O)=C(CNC(=O)c3cc(O)c(O)c(C#N)c3)CS[C@H]12)c1csc(N)n1 | 1.2 h | 107 mg/h/L | 5.5 | 
15 | CC(C)(O/N=C(\C(=O)N[C@@H]1C(=O)N2C(C(=O)O)=C(CNC(=O)c3ccc(O)c(O)c3Cl)CS[C@H]12)c1csc(N)n1)C(=O)O | 2.9 h | 131 mg/h/L | 7.65 | 
16 | CC(C)(O/N=C(\C(=O)N[C@@H]1C(=O)N2C(C(=O)O)=C(CNC(=O)c3cc(O)c(O)c(O)c3)CS[C@H]12)c1csc(N)n1)C(=O)O | 0.9 h | 51.9 mg/h/L | 8.35 | MIC (Pseudomonas aeruginosa [2]): 0.9 mg/L (≈ 1.41 µM); MIC (Pseudomonas aeruginosa [3]): 8.1 mg/L (≈ 12.7 µM)

Row | Structure (SMILES) | half-life (in vivo) | AUC (Canis familiaris) | pKa (physchem) | other results
17 | CCO/N=C(\C(=O)N[C@@H]1C(=O)N2C(C(=O)O)=C(CNC(=O)c3cc(O)c(O)c(F)c3)CS[C@H]12)c1csc(N)n1 | 0.65 h | 25 mg/h/L | 7.4 | 
18 | CC(C)(O/N=C(\C(=O)N[C@@H]1C(=O)N2C(C(=O)O)=C(CNC(=O)c3cc(O)c(O)c(F)c3)CS[C@H]12)c1csc(N)n1)C(=O)O | 3.5 h | 116.8 mg/h/L | 7.45 | 
19 | CC(C)(O/N=C(\C(=O)N[C@@H]1C(=O)N2C(C(=O)O)=C(/C=C/c3cc(O)c(O)c(Br)c3)CS[C@H]12)c1csc(N)n1)C(=O)O | 1.5 h | 61.6 mg/h/L | 7.7 | 
20 | CC(C)(O/N=C(\C(=O)N[C@@H]1C(=O)N2C(C(=O)O)=C(CNC(=O)/C=C/c3cc(O)c(O)cc3Br)CS[C@H]12)c1csc(N)n1)C(=O)O | 1 h | 24.2 mg/h/L |  | 
21 | CC(C)(O/N=C(\C(=O)N[C@@H]1C(=O)N2C(C(=O)O)=C(COC(=O)c3cc(O)c(O)c(Br)c3)CS[C@H]12)c1csc(N)n1)C(=O)O | 1.7 h | 67.7 mg/h/L | 6.5 | 
22 | CCO/N=C(\C(=O)N[C@@H]1C(=O)N2C(C(=O)O)=C(CNC(=O)c3cc(O)c(O)c([N+](=O)[O-])c3)CS[C@H]12)c1csc(N)n1 | 0.8 h | 48.9 mg/h/L | 5.5 | 
23 | CCOC(=O)c1nc2cc(O)c(O)cc2nc1C(=O)NCC1=C(C(=O)O)N2C(=O)[C@@H](NC(=O)/C(=N\OC(C)(C)C(=O)O)c3csc(N)n3)[C@H]2SC1 | 4.6 h | 287 mg/h/L | 6 | 
24 | CCN(CC1=C(C(=O)O)N2C(=O)[C@@H](NC(=O)/C(=N\OC(C)(C)C(=O)O)c3csc(N)n3)[C@H]2SC1)C(=O)c1cc(O)c(O)c(Br)c1 | 1 h | 21.8 mg/h/L | 7.3 | MIC (Enterobacter cloacae [4]): 1 mg/L (≈ 1.37 µM); MIC (Staphylococcus aureus [5]): 32 mg/L (≈ 44 µM); MIC (Enterobacter cloacae [6]): 0.25 mg/L (≈ 0.344 µM); MIC (Staphylococcus aureus [7]): 32 mg/L (≈ 44 µM); MIC (Escherichia coli [8]): 0.015 mg/L (≈ 0.0206 µM); MIC (Escherichia coli [9]): 0.015 mg/L (≈ 0.0206 µM); MIC (Pseudomonas aeruginosa [2]): 0.03 mg/L (≈ 0.0412 µM); MIC (Pseudomonas aeruginosa [3]): 0.06 mg/L (≈ 0.0825 µM)
25 | CCO/N=C(\C(=O)N[C@@H]1C(=O)N2C(C(=O)O)=C(CNC(=O)c3cc(O)c(O)c(Br)c3)CS[C@H]12)c1csc(N)n1 | 0.7 h | 17 mg/h/L | 6.9 | MIC (Enterobacter cloacae [4]): 8 mg/L (≈ 12.5 µM); MIC (Staphylococcus aureus [5]): 4 mg/L (≈ 6.24 µM); MIC (Enterobacter cloacae [6]): 0.015 mg/L (≈ 0.0234 µM); MIC (Staphylococcus aureus [7]): 2 mg/L (≈ 3.12 µM); MIC (Escherichia coli [8]): < 0.008 mg/L; MIC (Pseudomonas aeruginosa [2]): 0.06 mg/L (≈ 0.0935 µM); MIC (Pseudomonas aeruginosa [3]): 4 mg/L (≈ 6.24 µM)
26 | CC(C)(O/N=C(\C(=O)N[C@@H]1C(=O)N2C(C(=O)O)=C(CNC(=O)c3cc(O)c(O)cc3Br)CS[C@H]12)c1csc(N)n1)C(=O)O | 0.9 h | 13.4 mg/h/L | 8.1 | 
27 | CCO/N=C(\C(=O)N[C@@H]1C(=O)N2C(C(=O)O)=C(CNC(=O)c3ccc(O)c(O)c3)CS[C@H]12)c1csc(N)n1 | 0.8 h | 4.3 mg/h/L | 8.5 | MIC (Enterobacter cloacae [4]): 64 mg/L (≈ 114 µM); MIC (Staphylococcus aureus [5]): 4 mg/L (≈ 7.11 µM); MIC (Enterobacter cloacae [6]): 0.5 mg/L (≈ 0.889 µM); MIC (Staphylococcus aureus [7]): 2 mg/L (≈ 3.56 µM); MIC (Escherichia coli [8]): 0.06 mg/L (≈ 0.107 µM); MIC (Escherichia coli [9]): 0.08 mg/L (≈ 0.142 µM); MIC (Pseudomonas aeruginosa [2]): 0.25 mg/L (≈ 0.444 µM); MIC (Pseudomonas aeruginosa [3]): 64 mg/L (≈ 114 µM)
28 | CC(C)(O/N=C(\C(=O)N[C@@H]1C(=O)N2C(C(=O)O)=C(CNC(=O)Nc3cc(O)c(O)c(Br)c3)CS[C@H]12)c1csc(N)n1)C(=O)O | 2.8 h | 122.3 mg/h/L |  | 
29 | CC(C)(O/N=C(\C(=O)N[C@@H]1C(=O)N2C(C(=O)O)=C(CNCc3cc(O)c(O)c(Br)c3)CS[C@H]12)c1csc(N)n1)C(=O)O | 0.7 h | 4.4 mg/h/L |  | 
30 | CCO/N=C(\C(=O)N[C@@H]1C(=O)N2C(C(=O)O)=C(CNC(=O)c3cc(O)c(O)cc3Br)CS[C@H]12)c1csc(N)n1 | 0.35 h | 2 mg/h/L | 6.9 | 
31 | CCO/N=C(\C(=O)N[C@@H]1C(=O)N2C(C(=O)O)=C(CNC(=O)c3cc(Cl)c(O)c(O)c3Cl)CS[C@H]12)c1csc(N)n1 | 1.4 h | 54.5 mg/h/L | 6.9 | 
32 | CO/N=C(\C(=O)N[C@@H]1C(=O)N2C(C(=O)O)=C(COC(C)=O)CS[C@H]12)c1csc(N)n1 [CEFOTAXIME] | 0.5 h | 46.7 mg/h/L |  | 
